# Source: ChEMBL document CHEMBL2401692, “Synthesis, structure-activity relationships, and in vivo efficacy of the novel potent and selective anaplastic lymphoma kinase (ALK) inhibitor 5-chloro-N2-(2-isopropoxy-5-methyl-4-(piperidin-4-yl)phenyl)-N4-(2-(isopropylsulfonyl)phenyl)pyrimidine-2,4-diamine (LDK378) currently in phase 1 and phase …” (J Med Chem, 2013)
# Key:
# [1] = target: Fibroblast growth factor receptor 4 (Homo sapiens, UniProt P22455); test: Inhibition of FGFR4 (unknown origin) after 60 mins
# Sequence of Fibroblast growth factor receptor 4 (P22455 whole entry): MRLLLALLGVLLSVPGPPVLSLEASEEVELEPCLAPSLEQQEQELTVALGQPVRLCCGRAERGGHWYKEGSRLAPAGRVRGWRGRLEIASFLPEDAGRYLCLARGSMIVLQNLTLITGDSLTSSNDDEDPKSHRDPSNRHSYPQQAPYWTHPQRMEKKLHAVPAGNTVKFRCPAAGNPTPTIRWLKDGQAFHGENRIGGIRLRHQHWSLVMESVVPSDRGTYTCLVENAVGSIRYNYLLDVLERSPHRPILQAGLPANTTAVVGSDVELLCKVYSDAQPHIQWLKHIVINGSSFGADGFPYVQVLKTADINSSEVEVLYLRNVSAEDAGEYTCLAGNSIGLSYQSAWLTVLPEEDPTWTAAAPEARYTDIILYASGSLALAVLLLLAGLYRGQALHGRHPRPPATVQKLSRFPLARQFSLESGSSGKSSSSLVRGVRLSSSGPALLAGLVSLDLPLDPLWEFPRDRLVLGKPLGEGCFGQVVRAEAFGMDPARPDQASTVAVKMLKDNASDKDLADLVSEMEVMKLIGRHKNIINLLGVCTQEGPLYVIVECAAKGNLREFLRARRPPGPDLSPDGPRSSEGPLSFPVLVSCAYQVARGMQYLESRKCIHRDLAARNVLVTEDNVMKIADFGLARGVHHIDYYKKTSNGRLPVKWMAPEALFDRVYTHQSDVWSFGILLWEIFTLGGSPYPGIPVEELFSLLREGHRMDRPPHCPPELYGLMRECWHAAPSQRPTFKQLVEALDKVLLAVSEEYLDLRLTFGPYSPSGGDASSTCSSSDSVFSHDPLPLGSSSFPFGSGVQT
# [2] = Half life in BALB/c mouse at 5 mg/kg, iv; assay type: ADME, organism-based; set-up: dose 5 mg/kg, route intravenous; settings: in vivo
# [3] = Cmax in Beagle dog at 20 mg/kg, po; assay type: ADME, organism-based, Canis lupus familiaris; set-up: dose 20 mg/kg, route oral; settings: in vivo
# [4] = Inhibition of Aurora kinase (unknown origin) after 60 mins; set-up: species or system Homo sapiens
# [5] = tested on: BaF3; test: cells; settings: Mus musculus
# [6] = target: Tyrosine-protein kinase JAK3 (Homo sapiens, UniProt P52333); test: Inhibition of JAK3 (unknown origin) after 60 mins
# [7] = target: Tyrosine-protein kinase Lck (Homo sapiens, UniProt P06239); test: Inhibition of LCK (unknown origin) after 60 mins
# Sequence of Tyrosine-protein kinase Lck (P06239 whole entry): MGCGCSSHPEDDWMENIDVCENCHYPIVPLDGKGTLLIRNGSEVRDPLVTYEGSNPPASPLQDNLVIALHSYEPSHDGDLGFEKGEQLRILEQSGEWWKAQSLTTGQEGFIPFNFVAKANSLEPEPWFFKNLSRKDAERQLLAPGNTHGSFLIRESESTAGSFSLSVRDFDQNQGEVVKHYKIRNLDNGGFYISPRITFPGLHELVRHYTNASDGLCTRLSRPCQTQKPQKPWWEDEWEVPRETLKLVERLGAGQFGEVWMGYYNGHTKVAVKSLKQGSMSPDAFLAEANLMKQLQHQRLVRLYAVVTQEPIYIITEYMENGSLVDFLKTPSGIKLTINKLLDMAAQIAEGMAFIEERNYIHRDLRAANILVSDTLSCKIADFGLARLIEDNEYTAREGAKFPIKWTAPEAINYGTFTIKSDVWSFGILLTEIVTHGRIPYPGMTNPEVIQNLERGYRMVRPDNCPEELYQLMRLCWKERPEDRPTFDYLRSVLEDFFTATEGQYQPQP
# [8] = tested on: NCI-H2228; test: Antitumor activity against human NCI-H2228 cells xenografted in Rowett nude rat assessed as complete tumor regression at 25 mg/kg, po for 14 days measured 7 to 72 hrs post dosing relative to control; assay type: functional
# [9] = in vivo; settings: Sprague-Dawley, rat, iv, 3 mg/kg
# [10] = Plasma clearance in Beagle dog at 5 mg/kg, iv; assay type: ADME, organism-based, Canis lupus familiaris; set-up: dose 5 mg/kg, route intravenous
# [11] = Toxicity in po dosed Rowett nude rat xenografted with human NCI-H2228 cells; assay type: organism-based; settings: in vivo
# [12] = target: Mast/stem cell growth factor receptor Kit (Homo sapiens, UniProt P10721); test: Inhibition of cKIT (unknown origin) after 60 mins
# [13] = Tmax in cynomolgus monkey at 60 mg/kg, po; assay type: ADME, organism-based, Macaca fascicularis; set-up: dose 60 mg/kg, route oral; settings: in vivo
# [14] = target: T1, Tyrosine-protein kinase JAK2 (Homo sapiens, UniProt O60674); test: Inhibition of JAK2 (unknown origin) after 60 mins
# [15] = target: Proto-oncogene tyrosine-protein kinase Src (Homo sapiens, UniProt P12931); test: Inhibition of TEL-fused SRC (unknown origin) by cell-based assay
# [16] = Drug uptake in tumor of Rowett nude rat xenografted with human KARPAS299 cells at 50 mg/kg, po; assay type: ADME, organism-based, Neoplasm, KARPAS-299; set-up: dose 50 mg/kg, route oral; settings: in vivo
# [17] = Toxicity in po dosed Rowett nude rat xenografted with human KARPAS299 cells; assay type: organism-based, KARPAS-299; settings: in vivo
# [18] = Volume of distribution at steady state in Sprague-Dawley rat at 3 mg/kg, iv; assay type: ADME, organism-based; set-up: dose 3 mg/kg, route intravenous; settings: in vivo, read-out: Vdss
# [19] = Solubility of the compound […] at pH 6.8; assay type: physicochemical
# [20] = target: Tyrosine-protein kinase ABL1 (Homo sapiens, UniProt P00519); test: Inhibition of ABL (unknown origin) after 60 mins
# [21] = in vivo; settings: Sprague-Dawley, rat, po, 10 mg/kg
# [22] = Oral bioavailability in Beagle dog at 20 mg/kg; assay type: ADME, organism-based, Canis lupus familiaris; settings: in vivo
# [23] = Half life in Sprague-Dawley rat at 3 mg/kg, iv; assay type: ADME, organism-based; set-up: dose 3 mg/kg, route intravenous; settings: in vivo
# [24] = target: Cyclin-dependent kinase 2 (Homo sapiens, UniProt P24941); test: Inhibition of CDK2 (unknown origin) after 60 mins
# [25] = AUC in Sprague-Dawley rat at 3 mg/kg, iv; assay type: ADME, organism-based; set-up: dose 3 mg/kg, route intravenous; settings: plasma
# [26] = target: High affinity nerve growth factor receptor (Homo sapiens, UniProt P04629); test: Inhibition of TEL-fused TRKA (unknown origin) by cell-based assay
# Sequence of High affinity nerve growth factor receptor (P04629 33-796 limits assumed): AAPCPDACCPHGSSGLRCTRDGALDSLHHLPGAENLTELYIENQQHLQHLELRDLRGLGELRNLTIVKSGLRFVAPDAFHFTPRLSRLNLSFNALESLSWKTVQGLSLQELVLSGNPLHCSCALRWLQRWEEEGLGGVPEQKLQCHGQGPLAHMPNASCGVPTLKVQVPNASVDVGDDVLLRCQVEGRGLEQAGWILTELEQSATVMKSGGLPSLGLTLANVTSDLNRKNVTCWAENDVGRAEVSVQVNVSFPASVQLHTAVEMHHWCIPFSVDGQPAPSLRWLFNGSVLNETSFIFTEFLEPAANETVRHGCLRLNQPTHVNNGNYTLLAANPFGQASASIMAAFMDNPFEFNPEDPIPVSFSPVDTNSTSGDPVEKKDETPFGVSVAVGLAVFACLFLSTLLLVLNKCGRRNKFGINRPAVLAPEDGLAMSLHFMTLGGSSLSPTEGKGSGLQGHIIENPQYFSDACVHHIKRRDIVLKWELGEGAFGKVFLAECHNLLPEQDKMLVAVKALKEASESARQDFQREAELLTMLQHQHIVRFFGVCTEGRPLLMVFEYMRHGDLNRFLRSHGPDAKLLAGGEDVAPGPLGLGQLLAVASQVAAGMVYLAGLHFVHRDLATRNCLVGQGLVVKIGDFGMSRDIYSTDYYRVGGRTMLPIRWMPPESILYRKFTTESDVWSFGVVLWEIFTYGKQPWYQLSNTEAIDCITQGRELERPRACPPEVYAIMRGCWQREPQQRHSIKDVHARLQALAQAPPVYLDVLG
# [27] = AUC in Beagle dog at 20 mg/kg, po; assay type: ADME, organism-based, Canis lupus familiaris; set-up: dose 20 mg/kg, route oral; settings: plasma
# [28] = target: Transcription factor ETV6 (Homo sapiens, UniProt P41212); test: Inhibition of wild-type TEL (unknown origin) by cell-based assay
# [29] = tested on: KARPAS-299; test: Antitumor activity against human KARPAS299 cells xenografted in Rowett nude rat assessed as tumor growth inhibition factor at 6.25 mg/kg, po for 14 days measured 7 to 72 hrs post dosing relative to control; assay type: functional
# [30] = target: Receptor-type tyrosine-protein kinase FLT3 (Homo sapiens, UniProt P36888); test: Inhibition of FLT3 (unknown origin) after 60 mins
# Sequence of Receptor-type tyrosine-protein kinase FLT3 (P36888 whole entry): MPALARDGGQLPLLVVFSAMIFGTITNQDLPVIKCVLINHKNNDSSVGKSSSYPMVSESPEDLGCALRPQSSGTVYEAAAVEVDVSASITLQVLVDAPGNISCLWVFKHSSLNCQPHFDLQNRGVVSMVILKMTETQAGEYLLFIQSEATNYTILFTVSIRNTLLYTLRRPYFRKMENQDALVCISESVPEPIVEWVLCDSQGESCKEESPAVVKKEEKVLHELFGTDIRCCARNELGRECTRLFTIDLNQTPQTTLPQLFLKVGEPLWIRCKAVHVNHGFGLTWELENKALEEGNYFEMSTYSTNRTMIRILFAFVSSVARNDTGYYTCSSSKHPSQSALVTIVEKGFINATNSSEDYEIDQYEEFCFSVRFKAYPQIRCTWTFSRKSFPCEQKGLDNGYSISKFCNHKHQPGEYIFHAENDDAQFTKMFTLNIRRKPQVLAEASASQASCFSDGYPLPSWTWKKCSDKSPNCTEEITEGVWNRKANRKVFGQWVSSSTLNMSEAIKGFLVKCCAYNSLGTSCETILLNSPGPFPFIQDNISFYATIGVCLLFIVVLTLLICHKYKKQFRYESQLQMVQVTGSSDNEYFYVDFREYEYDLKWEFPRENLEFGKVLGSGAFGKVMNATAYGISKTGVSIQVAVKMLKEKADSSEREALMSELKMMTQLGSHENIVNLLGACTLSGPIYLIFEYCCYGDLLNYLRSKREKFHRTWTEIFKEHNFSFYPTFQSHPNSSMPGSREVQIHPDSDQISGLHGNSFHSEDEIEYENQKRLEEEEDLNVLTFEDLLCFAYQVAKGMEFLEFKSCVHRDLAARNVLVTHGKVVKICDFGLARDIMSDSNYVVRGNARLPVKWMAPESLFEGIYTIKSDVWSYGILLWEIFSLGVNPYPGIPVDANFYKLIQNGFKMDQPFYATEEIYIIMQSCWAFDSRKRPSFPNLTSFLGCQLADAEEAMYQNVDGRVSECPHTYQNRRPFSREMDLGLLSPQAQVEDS
# [31] = Volume of distribution at steady state in cynomolgus monkey at 5 mg/kg, iv; assay type: ADME, organism-based, Macaca fascicularis; set-up: dose 5 mg/kg, route intravenous; settings: in vivo, read-out: Vdss
# [32] = Volume of distribution at steady state in Beagle dog at 5 mg/kg, iv; assay type: ADME, organism-based, Canis lupus familiaris; set-up: dose 5 mg/kg, route intravenous; settings: in vivo, read-out: Vdss
# [33] = Cmax in cynomolgus monkey at 5 mg/kg, iv; assay type: ADME, organism-based, Macaca fascicularis; set-up: dose 5 mg/kg, route intravenous; settings: in vivo
# [34] = organism: Canis familiaris; test: Cardiotoxicity in dog assessed as QTc prolongation; assay type: toxicity, organism-based, Canis lupus familiaris; settings: in vivo
# [35] = target: Serine/threonine-protein kinase PAK 2 (Homo sapiens, UniProt Q13177); test: Inhibition of PAK2 (unknown origin) after 60 mins
# [36] = target: Rho-associated protein kinase 2 (Homo sapiens, UniProt O75116); test: Inhibition of ROCK2 (unknown origin) after 60 mins
# [37] = AUC in Sprague-Dawley rat at 10 mg/kg, po; assay type: ADME, organism-based; set-up: dose 10 mg/kg, route oral; settings: plasma
# [38] = target: Tyrosine-protein kinase ZAP-70 (Homo sapiens, UniProt P43403); test: Inhibition of ZAP70 (unknown origin) after 60 mins
# Sequence of Tyrosine-protein kinase ZAP-70 (P43403 whole entry): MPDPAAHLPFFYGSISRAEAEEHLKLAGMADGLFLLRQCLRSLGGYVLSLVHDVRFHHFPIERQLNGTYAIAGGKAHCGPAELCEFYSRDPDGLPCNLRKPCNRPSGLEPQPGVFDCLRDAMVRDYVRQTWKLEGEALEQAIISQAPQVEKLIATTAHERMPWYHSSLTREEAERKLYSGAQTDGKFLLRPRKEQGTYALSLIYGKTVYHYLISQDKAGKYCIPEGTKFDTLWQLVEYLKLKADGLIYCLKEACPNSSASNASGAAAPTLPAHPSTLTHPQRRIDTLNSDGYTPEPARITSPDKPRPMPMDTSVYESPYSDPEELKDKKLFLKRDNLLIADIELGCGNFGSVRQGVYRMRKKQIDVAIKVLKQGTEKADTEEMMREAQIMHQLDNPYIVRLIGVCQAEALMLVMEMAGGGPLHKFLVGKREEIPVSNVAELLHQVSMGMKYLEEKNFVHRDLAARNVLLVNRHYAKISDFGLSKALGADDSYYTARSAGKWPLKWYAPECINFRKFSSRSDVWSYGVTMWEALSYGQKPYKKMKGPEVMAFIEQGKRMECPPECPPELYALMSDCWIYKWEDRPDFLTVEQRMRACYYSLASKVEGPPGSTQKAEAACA
# [39] = Tmax in BALB/c mouse at 5 mg/kg, iv; assay type: ADME, organism-based; set-up: dose 5 mg/kg, route intravenous; settings: in vivo
# [40] = Inhibition of AKT (unknown origin) after 60 mins; set-up: species or system Homo sapiens
# [41] = target: Cyclin-dependent kinase 4 (Homo sapiens, UniProt P11802); test: Inhibition of CDK4 (unknown origin) after 60 mins
# Sequence of Cyclin-dependent kinase 4 (P11802 whole entry): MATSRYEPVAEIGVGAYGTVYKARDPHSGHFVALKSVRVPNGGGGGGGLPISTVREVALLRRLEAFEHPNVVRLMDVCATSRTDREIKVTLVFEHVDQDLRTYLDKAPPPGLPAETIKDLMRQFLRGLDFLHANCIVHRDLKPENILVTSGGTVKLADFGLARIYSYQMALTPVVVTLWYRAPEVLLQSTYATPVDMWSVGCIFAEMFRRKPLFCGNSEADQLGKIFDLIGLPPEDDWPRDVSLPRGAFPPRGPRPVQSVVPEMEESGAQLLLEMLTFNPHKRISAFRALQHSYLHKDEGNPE
# [42] = Plasma clearance in cynomolgus monkey at 5 mg/kg, iv; assay type: ADME, organism-based, Macaca fascicularis; set-up: dose 5 mg/kg, route intravenous
# [43] = AUC in cynomolgus monkey at 60 mg/kg, po; assay type: ADME, organism-based, Macaca fascicularis; set-up: dose 60 mg/kg, route oral; settings: plasma
# [44] = tested on: KARPAS-299; test: Antitumor activity against human KARPAS299 cells xenografted in Rowett nude rat assessed as tumor regression at 50 mg/kg, po for 14 days measured 7 to 72 hrs post dosing relative to control; assay type: functional
# [45] = Half life in Beagle dog at 5 mg/kg, iv; assay type: ADME, organism-based, Canis lupus familiaris; set-up: dose 5 mg/kg, route intravenous; settings: in vivo
# [46] = target: T1, Tyrosine-protein kinase JAK2; test: Inhibition of TEL-fused JAK2 (unknown origin) by cell-based assay
# [47] = target: Tyrosine-protein kinase Fgr (Homo sapiens, UniProt P09769); test: Inhibition of TEL-fused FGR (unknown origin) by cell-based assay
# Sequence of Tyrosine-protein kinase Fgr (P09769 whole entry, the tested form may be a part): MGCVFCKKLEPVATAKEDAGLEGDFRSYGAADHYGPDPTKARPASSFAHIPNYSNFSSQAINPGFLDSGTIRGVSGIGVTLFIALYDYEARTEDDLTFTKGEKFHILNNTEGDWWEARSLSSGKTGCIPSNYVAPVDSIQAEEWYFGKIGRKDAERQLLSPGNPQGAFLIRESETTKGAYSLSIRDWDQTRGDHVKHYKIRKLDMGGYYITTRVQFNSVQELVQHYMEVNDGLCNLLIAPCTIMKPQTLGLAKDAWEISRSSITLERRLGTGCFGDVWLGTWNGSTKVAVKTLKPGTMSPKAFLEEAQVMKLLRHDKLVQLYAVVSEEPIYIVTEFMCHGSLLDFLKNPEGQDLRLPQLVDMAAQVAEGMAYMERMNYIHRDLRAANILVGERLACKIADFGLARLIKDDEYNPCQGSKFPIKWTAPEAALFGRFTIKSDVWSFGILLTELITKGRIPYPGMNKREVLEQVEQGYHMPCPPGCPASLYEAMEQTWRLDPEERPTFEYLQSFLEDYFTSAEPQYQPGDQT
# [48] = target: MAP kinase-interacting serine/threonine-protein kinase 2 (Homo sapiens, UniProt Q9HBH9); test: Inhibition of MKNK2 (unknown origin) after 60 mins
# [49] = Intrinsic clearance in human liver microsomes; assay type: ADME, Microsome; settings: read-out: CLH
# [50] = target: Testis-specific serine/threonine-protein kinase 1 (Homo sapiens, UniProt Q9BXA7); test: Inhibition of STK22D (unknown origin) after 60 mins
# Sequence of Testis-specific serine/threonine-protein kinase 1 (Q9BXA7 whole entry): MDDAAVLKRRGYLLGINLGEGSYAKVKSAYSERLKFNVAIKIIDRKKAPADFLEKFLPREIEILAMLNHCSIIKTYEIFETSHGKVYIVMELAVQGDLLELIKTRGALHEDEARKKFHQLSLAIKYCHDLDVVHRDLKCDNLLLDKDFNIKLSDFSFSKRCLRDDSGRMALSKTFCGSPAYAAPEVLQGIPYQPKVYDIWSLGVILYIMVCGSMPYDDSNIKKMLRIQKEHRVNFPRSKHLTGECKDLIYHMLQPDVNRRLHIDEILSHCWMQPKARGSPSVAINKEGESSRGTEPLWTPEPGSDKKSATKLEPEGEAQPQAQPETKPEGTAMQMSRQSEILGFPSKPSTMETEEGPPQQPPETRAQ
# [51] = target: Cytochrome P450 3A4 (Homo sapiens, UniProt P08684); test: Inhibition of CYP3A4 in human liver microsomes using midazolam as substrate by LC-MS/MS analysis; assay type: ADME, Microsome
# [52] = target: Hepatocyte growth factor receptor (Homo sapiens, UniProt P08581)
# Description: Inhibition of cMET (unknown origin) after 60 mins
# [53] = target: Tyrosine-protein kinase JAK1 (Homo sapiens, UniProt P23458); test: Inhibition of JAK1 (unknown origin) after 60 mins
# [54] = target: Fibroblast growth factor receptor 3 (Homo sapiens, UniProt P22607); test: Inhibition of FGFR3 (unknown origin) after 60 mins
smiles,measurement,setting,value
Cc1cc(Nc2ncc(Cl)c(Nc3ccccc3S(=O)(=O)C(C)C)n2)c(OC(C)C)cc1C1CCNCC1 [CERITINIB],IC50,[1],950 nM
same,half-life,[2],6.2 h
same,Cmax,[3],1900 nM
same,IC50,[4],660 nM
same,IC50,[5],2480 nM
same,IC50,[6],7920 nM
same,IC50,[7],560 nM
same,T/C,[8],-100%
same,Cmax,[9],770 nM
same,clearance,[10],9.2 mL/min/kg
same,MTD,[11],5 mg/kg
same,IC50,[12],1280 nM
same,Tmax,[13],13 h
same,IC50,[14],610 nM
same,IC50,[15],1690 nM
same,Drug uptake,[16],Active
same,MTD,[17],6.25 mg/kg
same,Vd,[18],21.2 L/kg
same,solubility,[19],24 µM
same,IC50,[20],1250 nM
same,Cmax,[21],259 nM
same,bioavailability,[22],119%
same,half-life,[23],9.1 h
same,IC50,[24],3970 nM
same,AUC,[25],2.78 µM·h
same,IC50,[26],2730 nM
same,AUC,[27],67.9 µM·h
same,IC50,[28],3250 nM
same,T/C,[29],74%
same,IC50,[30],60 nM
same,Vd,[31],15 L/kg
same,Vd,[32],13.5 L/kg
same,Cmax,[33],2530 nM
same,Activity,[34],Non-toxic
same,IC50,[35],> 10000 nM
same,IC50,[36],1270 nM
same,AUC,[37],6.09 µM·h
same,IC50,[38],9700 nM
same,Tmax,[39],1.8 min
same,IC50,[40],> 10000 nM
same,IC50,[41],4720 nM
same,clearance,[42],12.8 mL/min/kg
same,AUC,[43],76.3 µM·h
same,T/C,[44],-66%
same,half-life,[45],21 h
same,IC50,[46],2160 nM
same,IC50,[47],1950 nM
same,IC50,[48],2240 nM
same,microsomal CLint,[49],19 µL/min/mg
same,IC50,[50],23 nM
same,INH,[51],1.5 µM
same,IC50,[52],3170 nM
same,IC50,[53],3730 nM
same,IC50,[54],430 nM
